Test results reported in patent US10508114B2, “Spiro-isoquinoline-4,4′-piperidine compounds having multimodal activity against pain” (ESTEVE PHARMACEUTICALS, S.A., priority 2015, dated 2019).

Test system: human σ1 receptor and human μ-opioid receptor
Assay: Human σ1 receptor and human μ-opioid receptor radioligand binding assays, reported on one dual scale
Parameters: key to μ and σ1 dual (binding expressed as Ki): +: Both Ki-μ and Ki-σ1>500 nM; ++: One Ki<500 nM while the other Ki is >=500 nM; +++: Both Ki-μ and Ki-σ1<500 nM; ++++: Both Ki-μ and Ki-σ1<100 nM
Conditions: combined class for both receptors; [3H](+)-pentazocine on transfected HEK-293 membranes (σ1), [3H]-DAMGO on transfected CHO-K1 membranes (μ)
Description: Human σ1 Receptor Radioligand Assay
To investigate binding properties of test compounds to human σ1 receptor, transfected HEK-293 membranes and [^3H](+)-pentazocine (Perkin Elmer, NET-1056), as the radioligand, were used. The assay was carried out with 7 μg of membrane suspension, 5 nM of [^3H](+)-pentazocine in either absence or presence of either buffer or 10 μM Haloperidol for total and non-specific binding, respectively. Binding buffer contained Tris-HCl 50 mM at pH 8. Plates were incubated at 37° C. for 120 minutes. After the incubation period, the reaction mix was then transferred to MultiScreen HTS, FC plates (Millipore), filtered and plates were washed 3 times with ice-cold 10 mM Tris-HCL (pH7.4). Filters were dried and counted at approximately 40% efficiency in a MicroBeta scintillation counter (Perkin-Elmer) using EcoScint liquid scintillation cocktail
Human μ-Opioid Receptor Radioligand Assay
To investigate binding properties of test compounds to human μ-opioid receptor, transfected CHO-K1 cell membranes and [^3H]-DAMGO (Perkin Elmer, ES-542-C), as the radioligand, were used. The assay was carried out with 20 μg of membrane suspension, 1 nM of [^3H]-DAMGO in either absence or presence of either buffer or 10 μM Naloxone for total and non-specific binding, respectively. Binding buffer contained Tris-HCl 50 mM, MgCl2 5 mM at pH 7.4. Plates were incubated at 27° C. for 60 minutes. After the incubation period, the reaction mix was then transferred to MultiScreen HTS, FC plates (Millipore), filtered and plates were washed 3 times with ice-cold 10 mM Tris-HCL (pH 7.4). Filters were dried and counted at approximately 40% efficiency in a MicroBeta scintillation counter (Perkin-Elmer) using EcoScint liquid scintillation cocktail.

Row | SMILES | μ and σ1 dual (binding expressed as Ki)
1 | O=C1NCC2(CCN(Cc3ccccc3)CC2)c2ccccc21 [Example 1, 1′-Benzyl-2,3-dihydro-1H-spiro[isoquinoline-4,4′-piperidin]-1-one] | ++
2 | CN1CC2(CCN(Cc3ccccc3)CC2)c2ccccc2C1=O [Example 2, 1′-Benzyl-2-methyl-2,3-dihydro-1H-spiro[isoquinoline-4,4′-piperidin]-1-one] | ++
3 | O=C1c2ccccc2C2(CCN(Cc3ccccc3)CC2)CN1CCO [Example 7, 1′-Benzyl-2-(2-hydroxyethyl)-2,3-dihydro-1H-spiro[isoquinoline-4,4′-piperidin]-1-one] | ++
4 | CC(=O)N1Cc2ccccc2C2(CCN(CCc3ccccc3)CC2)C1 [Example 10, 1-(1′-Phenethyl-1H-spiro[isoquinoline-4,4′-piperidine]-2(3H)-yl)ethanone] | ++
5 | CCN1CC2(CCN(Cc3ccccc3)CC2)c2ccccc2C1=O [Example 3, 1′-Benzyl-2-ethyl-2,3-dihydro-1H-spiro[isoquinoline-4,4′-piperidin]-1-one] | ++
6 | O=C1c2ccccc2C2(CCN(CCc3ccccc3)CC2)CN1CCO [Example 11, 2-(2-Hydroxyethyl)-1′-phenethyl-2,3-dihydro-1H-spiro[isoquinoline-4,4′-piperidin]-1-one] | ++

Same assay, conditions: combined class for both receptors; [3H](+)-pentazocine on transfected HEK-293 membranes (σ1), [3H]-DAMGO on transfected CHO-K1 membranes (μ); read-out: μ and σ1 dual (binding expressed as Ki)

Row | SMILES | Ki [nM]
7 | CN1CC2(CCN(CCc3ccccc3)CC2)c2ccccc2C1=O [Example 5, 2-Methyl-1′-phenethyl-2,3-dihydro-1H-spiro[isoquinoline-4,4′-piperidin]-1-one] | < 500
8 | O=C1NCC2(CCN(CCc3ccccc3)CC2)c2ccccc21 [Example 4, 1′-Phenethyl-2,3-dihydro-1H-spiro[isoquinoline-4,4′-piperidin]-1-one] | < 500
9 | CN1Cc2ccccc2C2(CCN(CCc3ccccc3)CC2)C1 [Example 9, 2-Methyl-1′-phenethyl-2,3-dihydro-1H-spiro[isoquinoline-4,4′-piperidine]] | < 500
10 | CCN1CC2(CCN(CCc3ccccc3)CC2)c2ccccc2C1=O [Example 6, 2-ethyl-1′-phenethyl-2,3-dihydro-1H-spiro[isoquinoline-4,4′-piperidin]-1-one] | < 500
11 | c1ccc(CCN2CCC3(CC2)CNCc2ccccc23)cc1 [Example 8, 1′-Phenethyl-2,3-dihydro-1H-spiro[isoquinoline-4,4′-piperidine]] | < 500
